Assay results published in patent publication US8865967B2 (priority 2010, dated 2014).

Columns and labels:
[1] = test system: Fusarium graminearum (FGR; isolate 73B ISU); type: cell-based; settings: for IC50 (ppm) High Salt Fgr: high salt: 1/2x liquid media plus 1 mM calcium chloride, 50 mM potassium chloride; for IC50 (ppm) Low Salt Fgr: low salt: 1/8x potato dextrose broth plus 0.25 mM calcium chloride, 12.5 mM potassium chloride
[2] = test system: Diplodia maydis (DMA); type: cell-based; settings: for IC50 (ppm) High Salt Dma: high salt: 1/2x liquid media plus 1 mM calcium chloride, 50 mM potassium chloride
[3] = test system: Colletotrichum graminicola (CGR; isolate Carroll-IA-99); type: cell-based; settings: for IC50 (ppm) High Salt Cgr: high salt: 1/2x liquid media plus 1 mM calcium chloride, 50 mM potassium chloride, Table 1; for IC50 (ppm) Low Salt Cgr: low salt: 1/8x Czapek-Dox broth plus 0.25 mM calcium chloride, 12.5 mM potassium chloride
[4] = test system: Fusarium verticillioides (FVE); type: cell-based
[5] = test system: C. graminicola; assay: Invasion of leaf sheaths of transgenic maize by C. graminicola; type: in vivo, Colletotrichum graminicola; settings: greenhouse, T0 V5-stage maize
Experimental: The leaf sheaths of leaf 4 or 5 of T0 plants at the V5 stage were inoculated with 50 μL of 5×10^6 spores/mL after wounding the leaf sheath on both sides of the midrib about half way between edge and midrib with a small screwdriver. The leaf sheath was covered with plastic wrap for 5 days. Nine days after inoculation the area of lesions was measured.

| Substance | IC50 (ppm) High Salt Fgr [1] [ppm] | IC50 (ppm) Low Salt Fgr [1] [ppm] | IC50 (ppm) High Salt Dma [2] [ppm] | Antifungal activity (IC50 in ppm) against C. graminicola under high salt conditions ([3]; high salt conditions, Table 2) [ppm] | IC50 (ppm) High Salt Cgr [3] [ppm] | IC50 (ppm) Low Salt Cgr [3] [ppm] | IC50 (ppm) High Salt Fve [4] [ppm] | relation of protein level to disease development ([5]; leaf sheath invasion by CGR) | invasion of leaf sheaths by CGR compared to empty vector controls ([5]; protein accumulated in endoplasmic reticulum, two transformation constructs) | IC50 (ppm) Low Salt Dma ([2]; low salt: 1/8x potato dextrose broth plus 0.25 mM calcium chloride, 12.5 mM potassium chloride) [ppm] | IC50 (ppm) Low Salt Fve [4] [ppm] |
| --- | --- | --- | --- | --- | --- | --- | --- | --- | --- | --- | --- |
| Pp-PDF1-1C-7A4: Pp-PDF1 variant from first shuffling round (RVCEKPSKFFKGLCGSDRDCTNACRKEGLATGECQSKGFFNSVCVCKKPC; Synthetic sequence obtained from DNA shuffling of a plant sequence.) | 20 | 4.7 | 50 | 5 | 5 | 0.1 | >200 | correlated inversely with disease development | significantly improved events | – | – |
| PP-PDF1-2CF-10F3: Pp-PDF1 variant from second shuffling round (RVCTKPSKFFRGLCVSDRNCTNACRKEGLPTGECKSKGFFNSVCVCKKPC; Synthetic sequence obtained from DNA shuffling of a plant sequence.) | 100 | 15 | 25 | – | 0.6 | 1.5 | 200 | – | – | 15 | 30 |
